Patent US11613531B2, “Inhibitors of RHO associated coiled-coil containing protein kinase” (Kadmon Corporation, LLC, priority 2017, dated 2023)

Tested on: ppMlc (T18/S19) levels in A7R5 cells
Assay: A7R5 in-cell ELISA (pMLC)
Type: cell-based, Rat
Settings: Rattus norvegicus, A7R5, A7R5 cells; for inhibition at 10 µM: 10 μM compound; for inhibition at 10 µM / inhibition at 1 µM: read-out: pMLC % inh A7R5 @ [conc]; for inhibition at 1 µM: 1 μM compound; for IC50: ppMlc (T18/S19)
Description: Determination of Compounds ROCK Inhibitory Activity in A7R5Cells.
Rat aortic smooth muscle cell line, A7R5, cells were seeded with density of 5,000 cells/well in a 96-well plates for 24 hours and subsequently treated for 90 min with testing compounds. Cells were then fixed and processed according to the In-Cell ELISA Colorimetric Detection Kit manual (Thermo Scientific).
An A7R5 in-cell Elisa assay was performed. A7R5 cells were treated with 9 points 2 fold serial dilution of compounds and ppMlc (T18/S19) levels were determined to calculate cellular IC50 values of the compounds. Compounds of the invention gave in cell IC50s under 100 nM.
In vitro activities for the compounds were measured with Z′-lyte kinase kit (ThermoFisher Scientific). The percent inhibition rate was calculated by normalizing the kinase activity value obtained with 1 μM compound treatment against DMSO control value and then applied to the formula, [1-(compound/DMSO)]×100%. IC50s were calculated using the nonlinear regression curve fit function of the GraphPad Prism software with kinase activities data measured with 9 points 2-fold serial dilution of compounds treatment. In cell pMLC IC50s were calculated with data obtained from A7R5 cell experiments. A7R5 cells were treated with 9 points 2-fold serial dilution of compounds and ppMlc (T18/S19) levels were determined to calculate cellular IC50 values of the compounds using the nonlinear regression curve fit function of the GraphPad Prism software. NIH3T3 cells stably expressing ACTA2-promoter-driven-luciferase were applied to measure ROCK compounds functional IC50s in cells. Cells were plated in 96 well plates to confluence and treated with 9 points serial dilution of compounds in combination with TGFβ1 for 24 hr. Luciferase activities were measured and compound's IC50s were calculated using the nonlinear regression curve fit function of the GraphPad Prism software.

Row | SMILES | inhibition at 10 µM [%] | inhibition at 1 µM [%] | IC50 [nM]
1 | Cc1cc(Nc2ccc3[nH]ncc3c2)nc(N2CCNC(c3ccccc3)CC2)n1 (centres unmarked) [Example 108, N-(6-methyl-2-(5-phenyl-1,4-diazepan-1-yl)pyrimidin-4-yl)-1H-indazol-5-amine] | 47.3 |  | 
2 | Fc1cnc(N2CC3(CCNCC3)C2)nc1Nc1ccc2[nH]ncc2c1 [Example 164, N-(5-fluoro-2-(2,7-diazaspiro[3.5]nonan-2-yl)pyrimidin-4-yl)-1H-indazol-5-amine] |  | -8.3 | 
3 | Cc1nc(N2CC(C)NC(C)C2)nc(Nc2ccc3[nH]ncc3c2)c1C (centres unmarked) [Example 24, N-(2-(3,5-dimethylpiperazin-1-yl)-5,6-dimethylpyrimidin-4-yl)-1H-indazol-5-amine] | 22.6 |  | 
4 | O=c1[nH]c2ccc(Nc3ccnc(N4CCNCC4)n3)cc2[nH]1 [Example 364, 5-((2-(piperazin-1-yl)pyrimidin-4-yl)amino)-1,3-dihydro-2H-benzo[d]imidazol-2-one] | 6.18 |  | 
5 | CC1(C)CN(c2nccc(Nc3ccc(-c4cn[nH]c4)cc3)n2)CCN1 [Example 255, N-(4-(1H-pyrazol-4-yl)phenyl)-2-(3,3-dimethylpiperazin-1-yl)pyrimidin-4-amine] | 72 |  | 1360
6 | CC1CN(c2nccc(Nc3ccc(-c4cn[nH]c4)cc3)n2)CC(C)N1 (centres unmarked) [Example 256, N-(4-(1H-pyrazol-4-yl)phenyl)-2-(3,5-dimethylpiperazin-1-yl)pyrimidin-4-amine] | 84.5 |  | 1560
7 | Cc1cnc(N2CCCNC(c3ccccc3)C2)nc1Nc1ccc2[nH]ncc2c1 (centres unmarked) [Example 103, N-(5-methyl-2-(3-phenyl-1,4-diazepan-1-yl)pyrimidin-4-yl)-1H-indazol-5-amine] | 38.3 |  | 
8 | COc1cnc(N2CCNC(c3ccccc3)CC2)nc1Nc1ccc2[nH]ncc2c1 (centres unmarked) [Example 50, N-(5-methoxy-2-(5-phenyl-1,4-diazepan-1-yl)pyrimidin-4-yl)-1H-indazol-5-amine] | 35.5 |  | 
9 | c1cc(Nc2ccc(-c3cn[nH]c3)cc2)nc(N2C3CCC2CNC3)n1 [Example 257, N-(4-(1H-pyrazol-4-yl)phenyl)-2-(3,8-diazabicyclo[3.2.1]octan-8-yl)pyrimidin-4-amine] | 85.6 |  | 2070
10 | c1cc(Nc2ccc3[nH]ncc3c2)nc(N2CCC3(CC2)CNC3)n1 [Example 70, N-(2-(2,7-diazaspiro[3.5]nonan-7-yl)pyrimidin-4-yl)-1H-indazol-5-amine] |  | -9.7 | 
11 | CC(C)C1CN(c2ncc(F)c(Nc3ccc4[nH]ncc4c3)n2)CCCN1 (centres unmarked) [Example 144, N-(5-fluoro-2-(3-isopropyl-1,4-diazepan-1-yl)pyrimidin-4-yl)-1H-indazol-5-amine] | 45.6 |  | 
12 | Cc1cc(Nc2ccc3[nH]ncc3c2)nc(N2CCC3(CC2)CNCCO3)n1 [Example 123, N-(6-methyl-2-(1-oxa-4,9-diazaspiro[5.5]undecan-9-yl)pyrimidin-4-yl)-1H-indazol-5-amine] |  | -0.8 | 
13 | Cc1cc(Nc2ccc3[nH]ncc3c2)nc(N2CCCNC(c3ccccc3)C2)n1 (centres unmarked) [Example 112, N-(6-methyl-2-(3-phenyl-1,4-diazepan-1-yl)pyrimidin-4-yl)-1H-indazol-5-amine] | 56.9 |  | 1290
14 | c1cc(Nc2ccc(-c3cn[nH]c3)cc2)nc(N2CC3CCC(C2)N3)n1 [Example 258, N-(4-(1H-pyrazol-4-yl)phenyl)-2-(3,8-diazabicyclo[3.2.1]octan-3-yl)pyrimidin-4-amine] | 26 |  | 
15 | Cc1cnc(N2CCCNC(C(C)C)C2)nc1Nc1ccc2[nH]ncc2c1 (centres unmarked) [Example 92, N-(2-(3-isopropyl-1,4-diazepan-1-yl)-5-methylpyrimidin-4-yl)-1H-indazol-5-amine] | 19.6 |  | 
16 | Fc1cnc(N2CCNC(c3ccccc3)CC2)nc1Nc1ccc2[nH]ncc2c1 (centres unmarked) [Example 142, N-(5-fluoro-2-(5-phenyl-1,4-diazepan-1-yl)pyrimidin-4-yl)-1H-indazol-5-amine] | 37.5 |  | 
